The record followed here is US11866430B2, “Naphthyridinone compounds useful as T cell activators” (priority 2018, dated 2024).

Where two headings read alike, the source gives them in different places.

Assay [1] addresses T1, human DGKζ (Homo sapiens (Human), UniProt Q13574). Nature of the assay: DGKζ assay (detergent/lipid micelle substrate). It is filed as biochemical. To be noted: detergent/lipid micelle substrate; read-out: DGKζ IC50. The procedure, abridged:
(§1)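 Full-length human DGKζ (and DGKα), C-terminal His-tagged, Sf9-expressed, with phosphatidylserine/DAG micelles in 50 mM octyl glucoside; buffer 50 mM MOPS pH 7.5, 100 mM NaCl, 10 mM MgCl2, 1 μM CaCl2, 1 mM DTT.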

Assay [2] deals with T2, human DGKα (Homo sapiens (Human), UniProt P23743). Nature of the assay: DGKα LIPGLO assay (extruded liposome substrate). The format is biochemical. As for the experimental part: The DGKα and DGKζ reactions were performed using either extruded liposome (DGKα and DGKζ LIPGLO assays) or detergent/lipid micelle substrate (DGKα and DGKζ assays). The reactions were carried out in 50 mM MOPS pH 7.5, 100 mM NaCl, 10 mM MgCl2, 1 μM CaCl2, and 1 mM DTT (assay buffer). The reactions using a detergent/lipid micelle substrate also contained 50 mM octyl B-D-glucopyranoside. […] The lipid substrate concentrations were […], 0.25 mM DAG, and 2.75 mM PC for the extruded liposome reactions.
(§2) The compound inhibition studies were carried out as follows: 50 nL droplets of each test compound (top concentration 10 mM with 11 point, 3-fold dilution series for each compound) solubilized in DMSO were transferred to wells of a white 1536 well plate (Corning 3725). A 5 mL enzyme/substrate solution at 2× final reaction concentration was prepared by combining 2.5 mL 4× enzyme solution (20 nM DGKα or DGKζ (prepared as described below) in assay buffer) and 2.5 mL of either 4× liposome or 4× detergent/lipid micelle solution (compositions described below) and incubated at room temperature for 10 minutes. Next, 1 μL 2× enzyme/substrate solution was added to wells containing the test compound and reactions were initiated with the addition of 1 μL 300 uM ATP. The reactions were allowed to proceed for 1 hr, after which 2 μL Glo Reagent (Promega V9101) was added and incubated for 40 minutes. Next, 4 μL Kinase Detection Reagent was added and incubated for 30 minutes. Luminescence was recorded using an EnVision microplate reader. […] The compounds were evaluated at 11 concentrations to determine IC50.
(§3) The PC, DAG, and PS were dissolved in chloroform, combined, and dried in vacuo to a thin film. The lipids were hydrated to 20 mM in 50 mM MOPS pH 7.5, 100 mM NaCl, 5 mM MgCl2, and were freeze-thawed five times. The lipid suspension was extruded through a 100 nm polycarbonate filter eleven times. […] The liposome preparation was stored at 4° C. for as long as four weeks.
Human DGK-alpha-TVMV-His-pFBgate and human DCK-zeta-transcript variant-2-TVMV-His-pFBgate baculovirus samples were generated using the Bac-to-Bac baculovirus expression system (Invitrogen) according to the manufacturer's protocol. The DNA used for expression of DGK-alpha and DGK-zeta have SEQ ID NOs: 1 and 3, respectively. Baculovirus amplification was achieved using infected Sf9 cells at 1:1500 virus/cell ratios, and grown for 65 hours at 27° C. post-transfection.
(§4) The expression scale up for each protein was carried out in the Cellbag 50 L WAVE-Bioreactor System 20/50 from GE Healthcare Bioscience. 12 L of 2×10^6 cells/mL Sf9 cells (Expression System, Davis, Calif.) grown in ESF921 insect medium (Expression System) were infected with virus stock at 1:200 virus/cell ratios, and grown for 66-68 hours at 27° C. post-infection. The infected cell culture was harvested by centrifugation at 2000 rpm for 20 min 4° C. in a SORVALL® RC12BP centrifuge. The cell pellets were stored at −70° C. until purification.
Full length human DGKα and DGKζ, each expressed containing a TVMV-cleavable C-terminal Hexa-His tag sequence (SEQ ID NOs: 2 and 4, respectively) and produced as described above, were purified from Sf) baculovirus-infected insect cell paste. The cells were lysed using nitrogen cavitation method with a nitrogen bomb (Parr Instruments), and the lysates were clarified by centrifugation. […] The three steps column chromatography included nickel affinity resin capture (i.e. HisTrap FF crude, GE Healthcare), followed by size exclusion chromatography (i.e. HiLoad 26/600 Superdex 200 prep grade, GE Healthcare for DGK-alpha, and HiPrep 26/600 Sephacryl S 300_HR, GE Healthcare for DGK-zeta). The third step was ion exchange chromatography, and differed for the two isoforms.

The target of assay [3] is T1, human DGKζ. Put plainly: DGKζ LIPGLO assay (extruded liposome substrate). It is filed as biochemical. Particulars: extruded liposome substrate; read-out: DGKζ LIPGLO IC50. As for the experimental part:
The DGKα and DGKζ reactions were performed using either extruded liposome (DGKα and DGKζ LIPGLO assays) or detergent/lipid micelle substrate (DGKα and DGKζ assays). The reactions were carried out in 50 mM MOPS pH 7.5, 100 mM NaCl, 10 mM MgCl2, 1 μM CaCl2, and 1 mM DTT (assay buffer). The reactions using a detergent/lipid micelle substrate also contained 50 mM octyl B-D-glucopyranoside.
as §2, with “A” for “The compound inhibition studies were carried out as follows: 50 nL droplets of each test compound (top concentration 10 mM with 11 point, 3-fold dilution series for each compound) solubilized in DMSO were transferred to wells of a white 1536 well plate (Corning 3725). A”
as §3
Baculovirus amplification was achieved using infected Sf9 cells at 1:1500 virus/cell ratios, and grown for 65 hours at 27° C. post-transfection.
as §4
The cells were lysed using nitrogen cavitation method with a nitrogen bomb (Parr Instruments), and the lysates were clarified by centrifugation. […] The three steps column chromatography included nickel affinity resin capture (i.e. HisTrap FF crude, GE Healthcare), followed by size exclusion chromatography (i.e. HiLoad 26/600 Superdex 200 prep grade, GE Healthcare for DGK-alpha, and HiPrep 26/600 Sephacryl S 300_HR, GE Healthcare for DGK-zeta). The third step was ion exchange chromatography, and differed for the two isoforms. DGKα was polished using Q-Sepharose anion exchange chromatography (GE Healthcare). DGKζ was polished using SP Sepharose cation exchange chromatography (GE Healthcare). The proteins were delivered at concentrations of ≥2 mg/mL. The formulation buffers were identical for both proteins: 50 mM Hepes, pH 7.2, 500 mM NaCl, 10% v/v glycerol, 1 mM TCEP, and 0.5 mM EDTA.

For assay [4], the target named is T2, human DGKα. Nature of the assay: biochemical. To be noted: detergent/lipid micelle substrate; read-out: DGKα IC50. The procedure, abridged:
as §1

The subject of assay [5] is pre-activated CD4 T cells and Raji cells. Nature of the assay: Raji CD4 T Cell IL2 Assay. It is filed as cell-based.

T2 sequence (P23743 other isoform, or with tags, fused parts or gaps): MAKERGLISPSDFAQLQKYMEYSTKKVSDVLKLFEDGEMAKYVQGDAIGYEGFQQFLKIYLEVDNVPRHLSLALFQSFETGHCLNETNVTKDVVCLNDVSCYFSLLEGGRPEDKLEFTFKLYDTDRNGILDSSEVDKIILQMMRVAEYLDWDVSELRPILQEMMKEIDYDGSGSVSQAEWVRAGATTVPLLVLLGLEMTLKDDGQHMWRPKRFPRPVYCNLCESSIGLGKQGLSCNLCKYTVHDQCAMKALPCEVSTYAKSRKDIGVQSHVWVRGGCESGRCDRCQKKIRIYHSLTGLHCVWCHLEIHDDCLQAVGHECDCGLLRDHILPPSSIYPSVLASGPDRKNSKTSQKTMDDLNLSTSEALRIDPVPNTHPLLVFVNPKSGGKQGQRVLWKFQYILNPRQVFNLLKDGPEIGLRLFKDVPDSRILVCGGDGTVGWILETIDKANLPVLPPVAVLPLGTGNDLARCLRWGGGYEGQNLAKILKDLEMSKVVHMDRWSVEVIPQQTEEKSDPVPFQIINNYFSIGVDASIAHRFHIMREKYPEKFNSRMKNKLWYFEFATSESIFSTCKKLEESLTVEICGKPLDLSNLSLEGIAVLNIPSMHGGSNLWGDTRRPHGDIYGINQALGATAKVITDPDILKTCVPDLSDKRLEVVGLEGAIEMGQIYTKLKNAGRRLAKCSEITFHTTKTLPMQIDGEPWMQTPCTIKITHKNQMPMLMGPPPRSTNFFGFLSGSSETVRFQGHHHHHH
T1 sequence (Q13574 other isoform, or with tags, fused parts or gaps): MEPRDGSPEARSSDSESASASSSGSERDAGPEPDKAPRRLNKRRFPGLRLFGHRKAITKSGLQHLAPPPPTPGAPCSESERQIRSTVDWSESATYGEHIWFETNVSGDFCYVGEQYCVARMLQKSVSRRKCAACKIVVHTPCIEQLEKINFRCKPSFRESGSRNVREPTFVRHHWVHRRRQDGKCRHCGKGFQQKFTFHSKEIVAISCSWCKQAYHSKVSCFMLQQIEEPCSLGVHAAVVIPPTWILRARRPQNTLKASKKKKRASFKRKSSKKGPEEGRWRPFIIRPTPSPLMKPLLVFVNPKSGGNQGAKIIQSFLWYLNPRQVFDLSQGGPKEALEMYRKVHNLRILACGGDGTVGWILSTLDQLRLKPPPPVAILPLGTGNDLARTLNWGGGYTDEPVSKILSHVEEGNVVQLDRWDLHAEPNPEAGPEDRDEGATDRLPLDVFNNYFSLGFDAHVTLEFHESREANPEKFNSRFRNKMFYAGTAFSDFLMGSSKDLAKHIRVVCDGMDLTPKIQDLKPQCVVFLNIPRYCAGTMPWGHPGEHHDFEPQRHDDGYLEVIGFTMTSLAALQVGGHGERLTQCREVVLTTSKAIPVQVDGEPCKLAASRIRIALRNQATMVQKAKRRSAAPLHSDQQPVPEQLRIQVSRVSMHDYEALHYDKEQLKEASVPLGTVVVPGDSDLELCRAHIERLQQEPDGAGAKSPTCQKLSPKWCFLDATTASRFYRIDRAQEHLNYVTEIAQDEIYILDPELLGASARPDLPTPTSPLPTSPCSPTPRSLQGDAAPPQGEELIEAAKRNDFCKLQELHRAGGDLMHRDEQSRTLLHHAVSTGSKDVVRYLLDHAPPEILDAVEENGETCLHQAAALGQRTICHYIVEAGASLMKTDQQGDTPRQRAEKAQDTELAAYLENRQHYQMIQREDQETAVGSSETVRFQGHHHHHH

As for `COc1ccccc1C(c1ccc(F)cc1)N1CCN(c2c(C#N)c(=O)n(C)c3ccc(Br)nc23)CC1` (single isomer, unassigned) [Example 14, 6-bromo-4-{4-[(4-fluorophenyl)(2-methoxyphenyl)methyl]piperazin-1-yl}-1-methyl-2-oxo-1,2-dihydro-1,5-naphthyridine-3-carbonitrile], the concentration for half-maximal inhibition (IC50) (as a rule, the midpoint of a concentration-inhibition curve) on human DGKζ [1] is more than 240000 nM; against human DGKα [2], 4700 nM; on human DGKζ [3] it was 3200 nM; on human DGKα [4], 1200 nM; in assay [5], 26 nM.

Consider `COc1ccc2c(n1)c(N1CCN(C(c3ccc(F)cc3)c3ccc(F)cc3)CC1)c(C#N)c(=O)n2C` [Example 103, 4-(4-(bis(4-fluorophenyl)methyl)piperazin-1-yl)-6-methoxy-1-methyl-2-oxo-1,2-dihydro-1,5-naphthyridine-3-carbonitrile], for which the IC50 was 6100 nM against human DGKα [2]; 990 nM on human DGKζ [3]; 400 nM in assay [5] (Homo sapiens, Raji).

In the case of `COc1ccc2c(n1)c(N1CCN(C(c3ccc(F)cc3)c3ccccc3O)CC1)c(C#N)c(=O)n2C` (centres unmarked) [Example 104, 4-(4-((4-fluorophenyl)(2-hydroxyphenyl)methyl)piperazin-1-yl)-6-methoxy-1-methyl-2-oxo-1,2-dihydro-1,5-naphthyridine-3-carbonitrile], the IC50 came to 740 nM against human DGKα [2]; 780 nM at human DGKζ [3]; 440 nM in assay [5] (Homo sapiens, Raji).

Regarding `O=c1c([N+](=O)[O-])c(N2CCN(C(c3ccccc3)c3ccccc3)CC2)c2ncccc2n1CCC1OCCCO1` [Example 166, 1-(2-(1,3-dioxan-2-yl)ethyl)-4-(4-benzhydrylpiperazin-1-yl)-3-nitro-1,5-naphthyridin-2(1H)-one], the 50% inhibitory concentration (IC50) against human DGKα [2] turned out to be 210000 nM; at human DGKζ [3] it was 230000 nM; in assay [5] (Homo sapiens, Raji), 3800 nM.

`C=CCn1c(=O)c([N+](=O)[O-])c(N2CCN(C(c3ccccc3)c3ccccc3)CC2)c2ncccc21` [Example 176, 1-all-4-(4-benzhydrylpiperazin-1-yl)-3-nitro-1,5-naphthyridin-2(1H)-one]: the IC50 was more than 240000 nM on human DGKα [2]; 27000 nM on human DGKζ [3]; 3000 nM in assay [5] (Homo sapiens, Raji).

With `Cc1ccc2c(n1)c(N1CCN(C(c3ccc(F)cc3)c3ccc(F)cc3)CC1)c(C(=O)C(F)(F)F)c(=O)n2C` [Example 228, 4-(4-(bis(4-fluorophenyl)methyl)piperazin-1-yl)-1,6-dimethyl-3-(2,2,2-trifluoroacetyl)-1,5-naphthyridin-2(1H)-one], the IC50 on human DGKζ [1] is more than 240000 nM; against human DGKα [2], more than 240000 nM; on human DGKζ [3] it was 9700 nM; in assay [5] (Homo sapiens, Raji), 110 nM.

For `Cn1c(=O)c([N+](=O)[O-])c(N2CCN(C(C)(C)c3ccc(F)cc3)CC2)c2nc(C#N)ccc21` [Example 260, 8-{4-[2-(4-fluorophenyl)propan-2-yl]piperazin-1-yl}-5-methyl-7-nitro-6-oxo-5,6-dihydro-1,5-naphthyridine-2-carbonitrile], the IC50 against human DGKα [2] was 1600 nM; at human DGKζ [3] it was 5300 nM; on human DGKα [4], 350 nM; in assay [5] (Homo sapiens, Raji), 18 nM.

With `Cn1c(=O)c(C#N)c(N2CCN(Cc3ccc(F)cc3)CC2)c2nc(Cl)ccc21` [Example 308, 6-chloro-4-{4-[(4-fluorophenyl)methyl]piperazin-1-yl}-1-methyl-2-oxo-1,2-dihydro-1,5-naphthyridine-3-carbonitrile], the IC50 amounted to 950 nM at human DGKα [2]; 13000 nM on human DGKζ [3]; 190 nM at human DGKα [4]; 210 nM in assay [5] (Homo sapiens, Raji).

For the molecule `CCn1ccc2c(CN3CCN(c4c(C#N)c(=O)n(C)c5cccnc45)CC3)cccc21` [Example 334, 4-{4-[(1-ethyl-1H-indol-4-yl)methyl]piperazin-1-yl}-1-methyl-2-oxo-1,2-dihydro-1,5-naphthyridine-3-carbonitrile], the IC50 turned out to be 1700 nM at human DGKα [2]; 27000 nM on human DGKζ [3]; 540 nM in assay [5] (Homo sapiens, Raji).

For `Cn1c(=O)c(C#N)c(N2CCN(C(c3ccccc3)c3ccccc3O)CC2)c2ncccc21` (centres unmarked) [Example 349, 4-{4-[(2-hydroxyphenyl)(phenyl)methyl]piperazin-1-yl}-1-methyl-2-oxo-1,2-dihydro-1,5-naphthyridine-3-carbonitrile], the IC50 at human DGKα [2] came out at 1300 nM; at human DGKζ [3], 32000 nM; in assay [5] (Homo sapiens, Raji) it was 1400 nM.

For the molecule `Cn1c(=O)c(C#N)c(N2CCN(C(c3ccccc3)c3ccccc3)CC2)c2nc(Cl)ccc21` [Example 358, 6-chloro-4-[4-(diphenylmethyl)piperazin-1-yl]-1-methyl-2-oxo-1,2-dihydro-1,5-naphthyridine-3-carbonitrile], the IC50 against human DGKα [2] is more than 240000 nM; at human DGKζ [3], more than 240000 nM; in assay [5] (Homo sapiens, Raji), 6500 nM.

Turning to `Cn1c(=O)cc(N2CCN(C(c3ccc(F)cc3)c3ccc(F)cc3)CC2)c2ncccc21` [Example 426, 4-(4-(bis(4-fluorophenyl)methyl)piperazin-1-yl)-1-methyl-1,5-naphthyridin-2(1H)-one], the IC50 is 170000 nM against human DGKα [2]; more than 240000 nM on human DGKζ [3]; 20000 nM in assay [5] (Homo sapiens, Raji).
